Results published in PMC12038006, “Structure and mechanism of a mycobacterial isoniazid efflux pump MsRv1273c/72c with a degenerate nucleotide-binding site” (Nature Communications, 2025).

Target: T1, MsRv1273c/72c (Mycolicibacterium smegmatis, UniProt A0R271+A0R272)
T1 construct: gene MSMEG_5008
Format: binding

T1 sequence (A0R272 entry or part of it): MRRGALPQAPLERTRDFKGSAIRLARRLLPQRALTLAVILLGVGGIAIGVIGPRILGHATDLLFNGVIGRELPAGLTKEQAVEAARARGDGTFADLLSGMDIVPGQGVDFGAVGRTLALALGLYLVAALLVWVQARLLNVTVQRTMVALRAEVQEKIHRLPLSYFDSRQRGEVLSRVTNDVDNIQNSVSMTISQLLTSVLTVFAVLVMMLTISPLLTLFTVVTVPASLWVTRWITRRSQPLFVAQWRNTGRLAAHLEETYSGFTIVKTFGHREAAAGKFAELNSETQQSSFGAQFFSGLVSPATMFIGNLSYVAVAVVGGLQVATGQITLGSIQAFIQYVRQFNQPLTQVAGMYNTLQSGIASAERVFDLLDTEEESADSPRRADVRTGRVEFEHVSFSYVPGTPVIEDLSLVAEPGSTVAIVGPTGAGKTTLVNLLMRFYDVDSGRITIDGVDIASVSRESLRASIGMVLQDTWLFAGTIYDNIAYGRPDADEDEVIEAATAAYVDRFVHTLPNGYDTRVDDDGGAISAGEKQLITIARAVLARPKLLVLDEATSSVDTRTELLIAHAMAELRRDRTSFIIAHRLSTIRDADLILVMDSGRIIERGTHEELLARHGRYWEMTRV
T1 sequence (A0R271 entry or part of it): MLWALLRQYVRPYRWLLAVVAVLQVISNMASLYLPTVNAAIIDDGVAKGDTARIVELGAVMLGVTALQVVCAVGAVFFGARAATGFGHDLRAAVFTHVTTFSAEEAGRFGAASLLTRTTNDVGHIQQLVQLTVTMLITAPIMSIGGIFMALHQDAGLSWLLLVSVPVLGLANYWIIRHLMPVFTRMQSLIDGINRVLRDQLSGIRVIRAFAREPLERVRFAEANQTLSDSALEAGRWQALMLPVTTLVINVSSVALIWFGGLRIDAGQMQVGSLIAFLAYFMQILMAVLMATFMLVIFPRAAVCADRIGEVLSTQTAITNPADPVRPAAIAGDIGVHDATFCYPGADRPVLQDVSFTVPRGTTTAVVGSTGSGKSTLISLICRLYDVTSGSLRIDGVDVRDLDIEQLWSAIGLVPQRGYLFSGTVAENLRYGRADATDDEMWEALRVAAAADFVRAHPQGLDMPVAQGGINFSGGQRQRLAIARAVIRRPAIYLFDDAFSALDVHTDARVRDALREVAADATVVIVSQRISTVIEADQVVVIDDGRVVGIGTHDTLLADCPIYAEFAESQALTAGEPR

With `Nc1ncnc2c1ncn2[C@@H]1O[C@H](COP(=O)(O)OP(=O)(O)O)[C@@H](O)[C@H]1O` [ADP] the cryo-EM structure was “In this structure, ADP binds at the consensus site”.
`Nc1ncnc2c1ncn2[C@@H]1O[C@H](COP(=O)(O)OP(=O)(O)OP(=O)(O)O)[C@@H](O)[C@H]1O` [ATP] was tested, and the cryo-EM structure was “the degenerate site is bound with an ATP, which has not been hydrolyzed”.
In the case of `Nc1ncnc2c1ncn2[C@@H]1O[C@H](COP(=O)(O)OP(=O)(O)NP(=O)(O)O)[C@@H](O)[C@H]1O` [AMPPNP], the cryo-EM structure is reported as “Though both NBSs bind AMPPNP, the NBDs are partially dimerized at the degenerate site”.
